Laboratory results reported in US5583142A, “Analgesic and nootropic drugs” (priority 1992, dated 1996).
Values joined by “and” are separate entries in the source; they are usually repeats but may differ in a detail not shown here. Equal values may be shown once. Read-outs that look alike come from different tables or passages of the source.

Experiments:
[1] = mouse rota-rod test (16 r.p.m.)
From the text: All products tested to detect their antinociceptive activity had been previously tested by the rota-rod test to determine their maximum utilizable dose in analgesic tests. In fact, by this test it is possible to determine the highest dose of drug not impairing the normal performance of animals in a test that simultaneously evaluates motor coordination, equilibrium, resistance to fatigue, and muscle strength. This test is meant to evaluate the capability of mice to stay balanced on a rotating rod [cf. Vaught et al., Neuropharmacology, 24 (3) 211-216 (1985)].
The calculated doses were those used in the two analgesic tests on mice.

[2] = type: in vivo, mouse; details: for ANALGESIC ACTIVITY (degree of analgesia, latency on hot plate): max. dose not affecting mice behaviour
Experimental: (§1) The analgesic action was detected in mouse, rat, guinea pig and dog. The mouse was subjected to hot plate and writhing tests; the rat to tail-flick and paw-pressure tests; the guinea pig to paw-pressure test only; the dog to the test described by Vainio et al. [J. Vet. Pharmacol. Ther., 12, 225-231 (1989)] using an electric stimulation. Consequently, the claimed compounds were tested with pain being induced by stimuli of different nature: thermal (hot plate and tail flick), chemical (writhing by acetic acid), mechanical (paw pressure) and electrical (cutaneous stimulation).
(§2) Potency, efficacy and toxicity of SM21, PG9 and SM32 in comparison with
(§3) four principal reference analgesic drugs tested in mouse. As analgesic

in vivo = details: mouse, sc
From the text: as §2, §3

[3] = mouse acetic acid writhing test; type: in vivo; details: for efficacy in writhing test, in words / number of writhes / Efficacy as analgesic (Morphine = 100) / percent inhibition: mouse; for Efficacy as analgesic (Morphine = 100) / percent inhibition: writhing; for ED50: sc, mouse writhing
Experimental: as §1
The claimed molecules, chosen as examples, were also assayed in mice by the writhing test (Table 4). The test is meant to evaluate the products capability to prevent mice writhes ensuing abdominal pains caused by i.p. injection of a 0.6% aqueous solution of acetic acid.
Acetic acid solution = 0.6% v/v.

rat paw-pressure test = type: in vivo; details: for paw-pressure: 20 mg/kg i.p.
Experimental: as §1
(§4) As already mentioned, the claimed products were assayed also in rat by the paw-pressure and tail-flick tests.
(§5) Both tests were carried out with the max. doses not impairing the rats normal behaviour. […] The painful stimulus utilized in the paw-pressure test involved the animal consciousness to a much greater extent than the stimulus used in the tail-flick test, in fact, the type and anatomic localization of the latter mainly involved a spinal response.
(§6) Both tests on rats were carried out with the max. doses not altering the behaviour of the treated animals.

rat tail-flick test = type: in vivo; details: for tail-flick: 20 mg/kg i.p.
Experimental: as §1, §4, §5, §6
The test was performed using th

[4] = guinea-pig paw-pressure test; type: in vivo; details: guinea-pig, 20 mg/kg i.p.
Experimental: as §1
Effect of SM21 and PG9 in guineapig pawpressure test. *P < 0.01; P < 0.0
in comparison with saline controls. The number of guineapig is in […]

[5] = paw-pressure test in rats with a lesion in the nucleus basalis magnocellularis (NBM); type: in vivo, rat; details: 30 mg/kg i.p.
From the text: 3. […] In fact, as known, the magnocellular basal nucleus destruction causes the degeneration of most central cholinergic system.

[6] = 40 mg/kg s.c., 15 min after treatment
[7] = 40 mg/kg s.c., 30 min after treatment
[8] = 40 mg/kg s.c., 45 min after treatment
[9] = 50 mg/kg s.c., 15 min after treatment
[10] = 50 mg/kg s.c., 30 min after treatment
[11] = 50 mg/kg s.c., 45 min after treatment

CCC(Oc1ccc(Cl)cc1)C(=O)O[C@H]1C[C@H]2CC[C@@H](C1)N2C (stereo partly drawn) [SM-21, 3α-Tropanyl 2-(p-chlorophenoxy)-butyrate]
rota-rod performance (number of falls in 30 s) ([1]; 30 mg/kg s.c., 15 min after treatment): 1.9 ± 0.3 falls in 30 s
rota-rod performance (number of falls in 30 s) ([1]; 30 mg/kg s.c., 30 min after treatment): 1.5 ± 0.5 falls in 30 s
rota-rod performance (number of falls in 30 s) ([1]; 30 mg/kg s.c., 45 min after treatment): 1.2 ± 0.5 falls in 30 s
rota-rod performance (number of falls in 30 s) [1, 6]: 1.6 ± 0.6 falls in 30 s
rota-rod performance (number of falls in 30 s) [1, 7]: 1.2 ± 0.4 falls in 30 s
rota-rod performance (number of falls in 30 s) [1, 8]: 1.2 ± 0.4 falls in 30 s
rota-rod performance (number of falls in 30 s) [1, 9]: 2.2 ± 0.4 falls in 30 s
rota-rod performance (number of falls in 30 s) [1, 10]: 2.6 ± 0.5 falls in 30 s
rota-rod performance (number of falls in 30 s) [1, 11]: 2.4 ± 0.5 falls in 30 s
rota-rod performance (number of falls in 30 s) ([1]; 60 mg/kg s.c., 15 min after treatment): 3.5 ± 0.5 falls in 30 s
rota-rod performance (number of falls in 30 s) ([1]; 60 mg/kg s.c., 30 min after treatment): 4.3 ± 0.4 falls in 30 s
rota-rod performance (number of falls in 30 s) ([1]; 60 mg/kg s.c., 45 min after treatment): 4.4 ± 0.6 falls in 30 s
ANALGESIC ACTIVITY (degree of analgesia, latency on hot plate) [2]: ++++ (Latency above 35" ++++-)
analgesic effect (AUC up to 45 min) compared with reference analgesics ([2]; mouse hot plate, FIG. 5, always (s.c. and i.p.)): always more active than all reference analgesics including morphine
Efficacy as analgesic (Morphine = 100), AUC (Area Under Curve) ([2]; mouse, in vivo): 111
Efficacy as analgesic (Morphine = 100), M.E. (Maximum Analgesic Effect) ([2]; mouse, in vivo): 111
hot-plate latency ([2]; mouse, 40 mg/kg i.p., 15 min after treatment): 36.7 ± 2.1 s
hot-plate latency ([2]; mouse, 40 mg/kg i.p., 30 min after treatment): 32.0 ± 2.2 s
hot-plate latency ([2]; mouse, 40 mg/kg i.p., 45 min after treatment): 25.9 ± 2.7 s
hot-plate latency ([2]; mouse, 40 mg/kg s.c., 15 min after treatment): 38.9 ± 2.9 s
hot-plate latency ([2]; mouse, 40 mg/kg s.c., 30 min after treatment): 31.3 ± 2.5 s
hot-plate latency ([2]; mouse, 40 mg/kg s.c., 45 min after treatment): 29.4 ± 3.3 s
LD50 (in vivo): 883 µmol/kg
efficacy in writhing test, in words [3]: slightly inferior to morphine
number of writhes ([3]; 40 mg/kg s.c.): 11.4 ± 1.6
Efficacy as analgesic (Morphine = 100) ([3]; 40 mg/kg s.c.): 90
percent inhibition ([3]; 40 mg/kg s.c.): 67.3%
ED50 [3]: 21.5 mg/kg and 47.4 µmol/kg
activity in paw-pressure test, in words (rat paw-pressure test): almost equivalent analgesia
paw-pressure (rat paw-pressure test; 15 min after treatment): 93.1 ± 4.0 g
paw-pressure (rat paw-pressure test; 30 min after treatment): 93.4 ± 5.4 g
paw-pressure (rat paw-pressure test; 45 min after treatment): 92.3 ± 6.4 g
activity in tail-flick test, in words (rat tail-flick test): active
tail-flick (rat tail-flick test; 15 min after treatment): 3.6 ± 0.2 s
tail-flick (rat tail-flick test; 30 min after treatment): 4.6 ± 0.4 s
tail-flick (rat tail-flick test; 45 min after treatment): 4.9 ± 0.4 s
paw-pressure ([4]; 15 min after treatment): 92.8 ± 4.0 g
paw-pressure ([4]; 30 min after treatment): 110.0 ± 6.6 g
paw-pressure ([4]; 45 min after treatment): 64.0 ± 6.2 g
paw-pressure ([5]; lesioned (NBM) rats, 15 min after treatment): 75.1 ± 5.8 g
paw-pressure ([5]; lesioned (NBM) rats, 30 min after treatment): 68.3 ± 4.9 g
paw-pressure ([5]; lesioned (NBM) rats, 45 min after treatment): 67.2 ± 3.9 g
paw-pressure ([5]; naive rats, 15 min after treatment): 109.6 ± 4.8 g
paw-pressure ([5]; naive rats, 30 min after treatment): 87.5 ± 5.2 g
paw-pressure ([5]; naive rats, 45 min after treatment): 67.8 ± 4.4 g
paw-pressure ([5]; sham rats, 15 min after treatment): 104.9 ± 4.6 g
paw-pressure ([5]; sham rats, 30 min after treatment): 93.4 ± 5.3 g
paw-pressure ([5]; sham rats, 45 min after treatment): 63.9 ± 5.1 g

CCC(Sc1ccccc1)C(=O)O[C@H]1C[C@H]2CC[C@@H](C1)N2C (stereo partly drawn) [SM-32, 3α-Tropanyl 2-(phenylthio)-butyrate]
rota-rod performance (number of falls in 30 s) [1, 6]: 1.2 ± 0.6 falls in 30 s
rota-rod performance (number of falls in 30 s) [1, 7]: 1.4 ± 0.3 falls in 30 s
rota-rod performance (number of falls in 30 s) [1, 8]: 1.2 ± 0.4 falls in 30 s
rota-rod performance (number of falls in 30 s) ([1]; 45 mg/kg s.c., 15 min after treatment): 2.0 ± 0.3 falls in 30 s
rota-rod performance (number of falls in 30 s) ([1]; 45 mg/kg s.c., 30 min after treatment): 2.3 ± 0.3 falls in 30 s
rota-rod performance (number of falls in 30 s) ([1]; 45 mg/kg s.c., 45 min after treatment): 2.0 ± 0.5 falls in 30 s
rota-rod performance (number of falls in 30 s) [1, 9]: 1.8 ± 0.4 falls in 30 s
rota-rod performance (number of falls in 30 s) [1, 10]: 2.6 ± 0.6 falls in 30 s
rota-rod performance (number of falls in 30 s) [1, 11]: 2.6 ± 0.5 falls in 30 s
ANALGESIC ACTIVITY (degree of analgesia, latency on hot plate) [2]: ++++ (Latency above 35" ++++-)
analgesic effect (AUC up to 45 min) compared with reference compounds ([2]; mouse hot plate, FIG. 5, s.c.): more active than the reference compounds
Efficacy as analgesic (Morphine = 100), AUC (Area Under Curve) ([2]; mouse, in vivo): 120
Efficacy as analgesic (Morphine = 100), M.E. (Maximum Analgesic Effect) ([2]; mouse, in vivo): 107
analgesic effect (AUC up to 45 min) compared with morphine ([2]; mouse, in vivo, ip): only slightly less active than morphine
hot-plate latency ([2]; mouse, 35 mg/kg i.p., 15 min after treatment): 35.5 ± 3.0 s
hot-plate latency ([2]; mouse, 35 mg/kg i.p., 30 min after treatment): 33.5 ± 2.6 s
hot-plate latency ([2]; mouse, 35 mg/kg i.p., 45 min after treatment): 24.4 ± 1.9 s
hot-plate latency ([2]; mouse, 35 mg/kg s.c., 15 min after treatment): 38.7 ± 3.5 s
hot-plate latency ([2]; mouse, 35 mg/kg s.c., 30 min after treatment): 36.4 ± 3.2 s
hot-plate latency ([2]; mouse, 35 mg/kg s.c., 45 min after treatment): 25.7 ± 2.9 s
LD50 (in vivo): 584 µmol/kg
efficacy in writhing test, in words [3]: less efficacious than ketorolac, are more efficacious than morphine
number of writhes ([3]; 35 mg/kg s.c.): 5.5 ± 2.1
Efficacy as analgesic (Morphine = 100) ([3]; 35 mg/kg s.c.): 111
percent inhibition ([3]; 35 mg/kg s.c.): 83.4%
ED50 [3]: 15.9 mg/kg and 35.7 µmol/kg
activity in paw-pressure test, in words (rat paw-pressure test): almost equivalent analgesia
paw-pressure (rat paw-pressure test; 15 min after treatment): 86.2 ± 4.0 g
paw-pressure (rat paw-pressure test; 30 min after treatment): 92.0 ± 6.1 g
paw-pressure (rat paw-pressure test; 45 min after treatment): 69.0 ± 4.8 g
activity in tail-flick test, in words (rat tail-flick test): active
tail-flick (rat tail-flick test; 15 min after treatment): 3.1 ± 0.5 s
tail-flick (rat tail-flick test; 30 min after treatment): 4.7 ± 0.6 s
tail-flick (rat tail-flick test; 45 min after treatment): 4.3 ± 0.5 s
